Non-standard residues stand in square brackets, D forms with d. No end group written: not given here.
Assays:
[1] = tested on: H4 cell lines expressing GFP-tagged LC3 (GL-H4); assay: Autophagic flow blocked by Bafilomycin A-1: LC3-GFP puncta by fluorescence microscopy; format: cell-based; conditions: 100 nM bafilomycin alone, GL-H4 cells
Protocol: FIGS. 1A and 1B are a series of fluorescence micrographs showing that autophagic flow blocked by Bafilomycin A-1 is restored by the peptides according to one embodiment of the present invention, wherein an H4 cell line (GL-H4) stably overexpressing GFP-LC3 protein was treated with various peptides according to one embodiment of the present invention at a concentration of 20 μM in combination with Bafilomycin, whose LC3-GFP spots were photographed after 12 hours. FIGS. 1C and 1D are graphs showing quantification of the fluorescence intensity of LC3-GFP spots 12 hours after the treatment of the GL-H4 cell line with the peptides according to one embodiment of the present invention in combination with bafilomycin at a concentration of 20 μM. […]
To investigate the effect of the peptides comprising the amino acid sequences designated as SEQ ID NOs: 1 to 15 on autophagic flow, the present inventors treated H4 cell lines expressing GFP-tagged LC3 (GL-H4) with MEM and then used the above peptides (20 μM) and the autophagy inhibitor Bafilomycin A-1, Baf A1, 100 nM) to inhibit autophagy. Later, the effect of the peptides according to one embodiment of the present invention was investigated by fluorescence microscopy analysis. […]

[2] = tested on: SOD1 protein aggregates (EGFP-SOD1 G93A); assay: Western blot of SOD1 protein aggregates in transfected HEK293T cells treated with bafilomycin; format: cell-based; conditions: 100 nM bafilomycin alone vs control
Protocol: FIG. 2A is the results of a western blot analysis of SOD1 protein expression levels of protein samples obtained 18 h after treatment of HEK293T cells transfected to express SOD1 with either 100 nM bafilomycin alone or in combination with 30 μM of some peptides according to one embodiment of the present invention, to investigate the degradation of SOD1 protein aggregates by treatment with some peptides (ZC303, ZC304, ZC309, ZC311) according to one embodiment of the present invention. FIG. 2B is a graph showing the results of quantification of the relative expression. In FIG. 2B, * indicates a significant difference from the treatment with bafilomycin alone (* p<0.05).
(§1) The present inventors conducted an Western blot analysis to investigate whether some of the peptides (ZC303, ZC304, ZC309, ZC311) comprising the amino acid sequences designated as SEQ ID NO: 1 to 15 could resolve SOD1 aggregates that formed after transient transfection of SOD1 protein into HEK293T cell lines. Specifically, the present inventors transiently transfected EGFP-SOD1 G93A DNA into the HEK293T cell line using Lipofectamine 2000. […] The obtained cell lysate was subjected to protein quantification using BCA protein assay kit (Pierce Biotechnology, USA). […]

[3] = tested on: mutant tau protein aggregates (EGFP-Tau P301L); assay: Western blot of mutant tau protein aggregates in transfected HEK293T cells treated with bafilomycin; format: cell-based; conditions: 100 nM bafilomycin alone vs controls
[4] = tested on: α-synuclein protein aggregates (EGFP-a-synuclein A53T); assay: Western blot of α-synuclein protein aggregates in transfected HEK293T cells treated with bafilomycin; format: cell-based; conditions: 100 nM bafilomycin alone vs control
Protocol: FIG. 4A is the results of a western blot analysis of a-synuclein expression levels of protein samples obtained 18 h after treatment of HEK293T cells transfected to express a-synuclein protein with either 100 nM bafilomycin alone or in combination with 30 μM of some peptides according to one embodiment of the present invention, to investigate the degradation of a-synuclein protein aggregates by treatment with some peptides (ZC303, ZC304, ZC309, ZC311) according to one embodiment of the present invention.
as §1, with “2000. After transfection, the cell lines were incubated in a cell incubator at 37° C., 5% CO2 for 30 h and the culture medium was replaced with Minimum Essential Medium (MEM, Gibco, USA). After a 30 min pre-treatment with 100 nM bafilomycin, 30 μM of peptide was added and incubated for 18 h of post-treatment.” for “2000.”

[5] = tested on: mutant huntingtin protein aggregates (GFP-mHttQ74); assay: Western blot of mutant huntingtin protein aggregates in transfected HEK293T cells treated with bafilomycin; format: cell-based; conditions: 100 nM bafilomycin alone vs control
Protocol: FIG. 5 is the results of a Western blot analysis of mutant huntingtin protein expression levels of protein samples obtained 18 h after treatment of HEK293T cells transfected to express mutant huntingtin protein with either 100 nM bafilomycin alone or in combination with 30 μM of some peptides according to one embodiment of the present invention, to investigate the degradation of mutant huntingtin protein aggregates by treatment with some peptides (ZC303, ZC304, ZC309, ZC311) according to one embodiment of the present invention.
as §1, with “2000. After transfection, the cell lines were incubated in a cell incubator at 37° C., 5% CO2 for 30 h and the culture medium was replaced with Minimum Essential Medium (MEM, Gibco, USA). After a 30 min pre-treatment with 100 nM bafilomycin, 30 μM of peptide was added and incubated for 18 h of post-treatment.” for “2000.”

β-amyloid aggregates = assay: Thioflavin S and Congo red staining of β-amyloid plaques in brain sections of Alzheimer's model animals; format: in vivo; conditions: 5XFAD mice, cortex and hippocampus, 20 mg/kg IP, 25 weeks, vs model animals given PBS alone
Source text: To determine whether the peptides according to one embodiment of the present invention could inhibit the accumulation of β-amyloid aggregates in the brain as a pathologic phenomenon of Alzheimer's disease, even under realistic in vivo conditions as shown by the results of Experiments 4 and 5 above, brain tissue sections obtained from experimental animals sacrificed after the peptide administration for 25 weeks were stained with thioflavin S and Congo red that have selective affinity for β-amyloid plaques.
Specifically, for thioflavin S staining, the brain of a dementia model mouse was harvested and freeze-dried in O.C.T compound (Sakura finetec, USA), and brain sections were obtained by coronal sectioning and mounted on glass slides coated with 0.1% poly-L-lysine. The obtained brain sections were washed in 70% ethanol for 1 min, then in 80% ethanol for 1 min again, and stained in 1% thiflavin S solution (MilliporeSigma, USA) for 15 min. […] Finally, the β-amyloid senile spots were observed through fluorescence microscopy.
Congo red staining to identify amyloid was performed as follows. […] The amyloid senile spots were observed under a fluorescence microscope, and the number of stained senile spots and amyloid per brain section was counted and quantified with a statistical program (Graph prism).

[6] = tested on: P-Tau S214, P-Tau T205, unphosphorylated tau, p62, LC3, β-amyloid (APP); assay: Western blot of aggregate-forming proteins in cerebral cortex and hippocampus of Alzheimer's model animals; format: in vivo; conditions: 5XFAD mice, 20 mg/kg IP, 25 weeks
Source text: Based on the results of Experimental example 7-2 above, the present inventors investigated the expression of pathogenic aggregate-forming proteins such as tau protein, p62, and LC3 in brain tissue other than β-amyloid by Western blot analysis.
Specifically, cortical and hippocampal tissues were obtained from experimental animals sacrificed after experiments, and the tissues were lysed and subjected to Western blot analysis in the same manner as Experimental example 3, using antibodies that specifically bind to phosphorylated tau S214 (P-Tau S214), phosphorylated tau T205 (P-Tau T205), unphosphorylated tau, p62, LC3, and β-amyloid (APP), respectively.

[7] = tested on: amyotrophic lateral sclerosis model animal (G93A-SOD1); assay: Rotarod test in ALS model animals; format: in vivo; conditions: G93A-SOD1 mice, 40 mg/kg SC five days per week from age 112 to 200 days, 15 rpm, 300 seconds
Protocol: (§2) To determine whether the peptide according to one embodiment of the present invention has therapeutic effects on amyotrophic lateral sclerosis (ALS) in vivo, the present inventors administered the peptide according to one embodiment of the present invention (ZC311) to an amyotrophic lateral sclerosis model animal (G93A-SOD1) at 40 mg/kg by subcutaneous (SC) injection repeatedly five days per week (Monday through Friday) from the age of 112 days to 200 days.
The animals were then subjected to a rotarod test twice a week at intervals of up to 3-4 days to evaluate their motor function. The rotarod test was performed using a rotarod treadmill (Cat. No. DJ-345, Dae Jong, Seoul, Korea) to evaluate impaired coordination, the main symptom of basal ganglia lesion disease, by measuring the time for the subject animals (n=11, 8, and 10) to fall off the rod during three repetitions of 300 seconds at a constant speed of 15 rpm. 300 seconds was set to be a perfect score, and the highest score was used.

[8] = Body weight change in ALS model animals; format: in vivo; conditions: G93A-SOD1 mice, 40 mg/kg SC five days per week from age 112 to 200 days
Protocol: as §2
The present inventors measured changes in body weight over time during the behavioral analysis of Experimental example 8-1 above.

[9] = tested on: amyotrophic lateral sclerosis model animal (G93A-SOD1); assay: Survival rate of ALS model animals; format: in vivo; conditions: G93A-SOD1 mice, 40 mg/kg SC five days per week from age 112 days; untreated model 162 days
Protocol: as §2
In contrast, ALS model mice treated with the peptide according to one embodiment of the present invention began to die at a similar time to the control group, but the time to death was delayed (50% survival 183 days).

Question: Which results are given for `CO/C1=C\C(C)=C\[C@@H](C)[C@@H](O)[C@@H](C)C/C(C)=C/C=C/[C@H](OC)[C@@H]([C@@H](C)[C@@H](O)[C@H](C)[C@@]2(O)C[C@@H](O)[C@H](C)[C@@H](C(C)C)O2)OC1=O` [bafilomycin, Bafilomycin A-1]?
Answer: number and size of LC3 spots [1]: significantly increased; SOD1 protein aggregates [2]: increased; mutant tau protein aggregates [3]: increased; α-synuclein protein aggregates [4]: increased; mutant huntingtin protein aggregates [5]: increased

Question: What does the source list for “ZC311 ([dH]G[dV][dS]GHGQ[dH]G[dV][dH]G; not fully specified (residues 6, 8))”?
Answer: accumulation of β-amyloid aggregates (plaques, thioflavin S and Congo red) (β-amyloid aggregates): significantly inhibited; expression of aggregate-forming proteins in the cerebral cortex [6]: significantly lower; expression of aggregate-forming proteins in the hippocampus [6]: significantly lower; development of ataxia (rotarod) [7]: delayed; progressive body weight loss over time [8]: not altered; 50% survival [9]: 183 days
